Like-named read-outs stand apart in the source and are kept apart here.
Tests used:
229E mPRO = 229E mPRO (Human coronavirus 229E (HCoV-229E), UniProt P0C6X1); assay: 229E mPRO enzymatic assay; assay type: biochemical, Human Coronavirus (HCov) 229E
Procedure: Compounds were assayed using standard methods to assess compound activity and IC50. […] The assay buffer contained 20 mM of Tris-HCl (pH 7.3), 100 mM of NaCl, 1 mM of EDTA, 5 mM of TCEP and 0.1% BSA.
The compounds were added to an assay plate.
IC50 values of compounds were calculated with the GraphPad Prism software using the nonlinear regression model of log(inhibitor) vs. response—Variable slope (four parameters). The inhibition activity was calculated using the formula below, IC50 values was calculated using the Inhibition % data. Inhibition %=[(Sample−Average ZPE)/(Average HPE−Average ZPE)]*100%
^#HEP: Hundred percent effect controls. Containing substrate+enzyme+1 μM GC376.
Containing enzyme+substrate, no compound.
Sample: Compound activity testing wells. Containing compound+enzyme+substrate.
BG: Compound background control wells. Containing compound+substrate, no enzyme.

HCoV 229E = HCoV 229E cytopathic effect (CPE) assay; assay type: cell-based, Human Coronavirus (HCov) 229E; details: read-out: 229E CPE EC50 (μM)
Procedure: The antiviral activity of compounds was calculated based on the protection of the virus-induced CPE at each concentration normalized by the virus control.
Reagents and instruments used in this assay include luminescent cell viability assay kit CellTiter Glo (Promega) and Microplate Reader Synergy2 (BioTek).
Cytopathic effect (CPE) was measured by CellTiter Glo following the manufacturer's manual. The antiviral activity of compounds was calculated based on the protection of the virus-induced CPE at each concentration normalized by the virus control.

229E mPRO, sequence (P0C6X1 2966-3267 limits assumed): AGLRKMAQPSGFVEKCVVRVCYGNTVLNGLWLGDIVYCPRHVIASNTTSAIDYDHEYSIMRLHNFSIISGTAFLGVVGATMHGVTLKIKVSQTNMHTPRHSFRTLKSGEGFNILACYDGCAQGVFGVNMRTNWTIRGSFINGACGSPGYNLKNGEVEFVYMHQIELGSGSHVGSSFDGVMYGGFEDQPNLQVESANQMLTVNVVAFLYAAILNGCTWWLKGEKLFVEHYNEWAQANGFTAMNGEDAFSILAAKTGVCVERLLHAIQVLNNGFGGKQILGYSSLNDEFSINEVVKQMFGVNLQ

SMILES	IC50 (229E mPRO; read-out: 229E mPRO IC50)	IC50 (229E mPRO)	EC50 (HCoV 229E)
N#C[C@H](C[C@@H]1CCCNC1=O)NC(=O)C1CC2(CCC2)CN1C(=O)c1cc2cccc(Cl)c2[nH]1 (single isomer, unassigned) [729 (Isomer 1)]	< 2000 nM		
N#C[C@H](C[C@@H]1CCCNC1=O)NC(=O)C1CC2(CN1C(=O)c1cc3cccc(Cl)c3[nH]1)CC(F)(F)C2 (single isomer, unassigned) [743 (Isomer 2)]		< 2000 nM	< 2 µM
N#C[C@H](C[C@@H]1CCCNC1=O)NC(=O)C1CC2(CCC2)CN1C(=O)c1cc2cccc(Cl)c2[nH]1 (single isomer, unassigned) [731 (Isomer 1)]		< 2000 nM	< 2 µM
COc1cccc2[nH]c(C(=O)N3C[C@@H]4CC[C@@H]4[C@H]3C(=O)N[C@H](C#N)C[C@@H]3CCNC3=O)cc12 (single isomer, unassigned) [547 (Isomer 2)]	< 2000 nM		

From patent publication US11472793B2, “Inhibitors of cysteine proteases and methods of use thereof” (priority 2020, dated 2022)
